# Results published in patent publication US4980377A, “1-(aminophenyl)-2-aminopropanone derivatives” (Laboratoire L. Lafon, priority 1984, dated 1990).
# Entries after “also recorded” stand apart in the source; their conditions may differ. Structures can show the parent of a compound that is named as a salt.
# Columns and labels:
# [1] = test system: mice; assay: Motility reduced by hypoxic aggression; assay type: in vivo, mouse; conditions: i.p.
# Protocol: Half an hour after they have received CRL 41 153, the mice (10 per dose, 20 control animals) are subjected to acute hypobaric anoxia [pressure reduction of 600 mm Hg (i.e. about 8×10^4 Pa) in 90 seconds; release of vacuum in 45 seconds] and are then placed in an actimeter, where their motility is recorded for 10 minutes.
# [2] = test system: mice; assay: Interaction with apomorphine in mice; assay type: in vivo, mouse; conditions: i.p.
# Protocol: Groups of 6 mice receive CRL 41 153 0.5 hour before the subcutaneous injection of 1 or 16 mg/kg of apomorphine.
# [3] = test system: mice; assay: Behavioral despair; assay type: in vivo, mouse; conditions: forcibly immersed mice, i.p.
# Source text: Half an hour after they have received CRL 41 153, groups of 6 mice are placed in a beaker filled with water to a height of 6 cm. The total period of immobility between the 2nd and 6th minutes following immersion is noted.
# [4] = test system: cellular and humoral immunity; assay: Test for cells forming lysis areas; conditions: in vivo
# [5] = test system: man; assay: Clinical study: treatment of depressions; assay type: in vivo, human
# [6] = test system: mice; assay: Interaction with reserpine; assay type: in vivo, mouse; conditions: i.p.
# Protocol: Four hours after the intraperitoneal injection of 2.5 mg/kg of reserpine, groups of 6 mice receive CRL 41 153.
# [7] = test system: mice; assay: Interaction with oxotremorine; assay type: in vivo, mouse; conditions: i.p.
# Protocol: CRL 41 153 is administered to groups of 6 mice 0.5 hour before the intraperitoneal injection of 0.5 mg/kg of oxotremorine.
# [8] = test system: mice; assay: Overall behavior and reactivities in mice; assay type: in vivo, mouse; conditions: dose not stated
# Protocol: (§1) In the neuropsychopharmacological study which follows, a solution of CRL 41 153 in distilled water (pH 1.5) was administered intraperitoneally in a volume of 20 ml/kg to male mice and 5 ml/kg to male rats.
# (§2) Groups of three animals are observed before and then 0.25 hour, 0.50 hour, 1 hour, 2 hours, 3 hours and 24 hours after the administration of CRL 41 153.
# [9] = test system: mice; assay: Interaction with barbital; assay type: in vivo, mouse; conditions: i.p., barbital 220 mg/kg
# Protocol: Half an hour after the administration of CRL 41 153, groups of 10 mice receive an intraperitoneal injection of barbital (220 mg/kg).
# [10] = test system: cellular and humoral immunity; assay: Delayed hypersensitivity to the red blood corpuscles of sheep; assay type: in vivo
# [11] = test system: rats; assay: Interaction with amphetamine; assay type: in vivo, rat; conditions: i.p.
# Protocol: Amphetamine (2 mg/kg) is injected intraperitoneally into groups of 6 rats 30 minutes after the administration of CRL 41 153. […] 4 mg/kg and 16 mg/kg, CRL 41 153 potentiates the intensity and duration of the stereotypies induced by amphetamine.
# [12] = test system: gravid White New Zealand female rabbits; assay: Teratogenicity in gravid White New Zealand rabbits; assay type: in vivo, rabbit; conditions: day 5 to day 18 of gestation; for Affected foetuses, %: normal limit 1.5%
# How it was run: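 Fetuses harvested by cesarean on gestation day 29 were scored for number and for any malformation (limb blockade, anury, tail or skull defects, exencephaly).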
# [13] = test system: immunity; assay: Immunological study (overall); conditions: in vivo; dihydrochloride
# [14] = test system: CNS; assay: Neuropsychopharmacological profile as a whole; assay type: in vivo, mice and rats
# Protocol: as §1
# [15] = pH of solutions in distilled water; assay type: physicochemical
# Protocol: The neuropsychopharmacological study was undertaken according to the procedures described above for CRL 41 153, CRL 41 213 being adminstered intraperitoneally, in solution in distilled water, in a volume of 20 ml/kg to male mice and a volume of 5 ml/kg to male rats, and the pH of the injected solution varying with the concentration of CRL 41 213 according to the data given in Table II below.
# [16] = test system: rats; assay: Overall behavior and reactivities in rats; assay type: in vivo, rat; conditions: dose not stated
# Protocol: as §1, §2
# [17] = test system: dogs; assay: Cardiovascular study in anesthetized dogs; assay type: in vivo, dog
# How it was run: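 Nembutal-anaesthetized dogs (~14 kg) given CRL 41 194 (n=2) or CRL 41 221 (n=4) intraduodenally at successive 0.1, 0.5, 1, 2.5, 5 and 10 mg/kg doses. Blood pressure, heart rate, femoral and vertebral flow, rectal temperature measured; skin colour observed, plus bile colour (CRL 41 194).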
# [18] = test system: mice; assay: Spontaneous motility; assay type: in vivo, mouse; conditions: i.p.
# Protocol: 0.5 hour after they have received CRL 41 153, the mice (6 per dose, 12 control animals) are placed in an actimeter, where their motility is recorded for 30 minutes.
# [19] = test system: mice; assay: Motility reduced by habituation to the enclosure; assay type: in vivo, mouse; conditions: i.p.
# Protocol: After they have stayed In the actimeters for 18 hours, (he mice (6 per dose, 12 control animals) receive CRL 41 153. They are immediately returned to their respective enclosures and, half an hour later, their motility is recorded for 30 minutes.
# [20] = test system: rats; assay: Interaction with apomorphine in rats; assay type: in vivo, rat; conditions: i.p.
# Protocol: CRL 41 153 is administered to groups of 6 rats 0.5 hour before the subcutaneous injection of 0.5 mg/kg of apomorphine.
# [21] = anesthetized dogs, intraduodenal
smiles,measurement,setting,value
"CC(C(=O)c1ccc(N)cc1)N1CCOCC1 (stereo not shown) [CRL 41 237, 1-(4-aminophenyl)-2-morpholinopropanone dihydrochloride]",Motor recovery of mice after hypobaric hypoxia,[1],improvement in the motor recovery
same,Effect on hypothermia induced by apomorphine,[2],antagonism of the hypothermia
same,Period of immobility due to despair,[3],a reduction in the period of immobility
same,Activity in the test for cells forming lysis areas,[4],"strong activity according to the abovementioned test for cells forming lysis areas, at a dose of 100 mg/kg, administered orally"
same,Result in the treatment of depressions,[5],good results were obtained by oral administration in the treatment of depressions at a daily dose of -0 mg
same,Effect on hypothermia induced by reserpine,[6],antagonism of the hypothermia
same,Effect on ptosis induced by reserpine,[6],antagonism of the ptosis induced by reserpine
same,Effect on hypothermic action of oxotremorine,[7],antagonism of the hypothermia
same,Effect on trembling induced by oxotremorine,[7],antagonism of the trembling induced by oxotremorine
same,Overall behavior: observed effects (summary),[8],excitation with hyperreactivity in mice and rats
same,Stereotype movements (summary),[8],the presence of stereotype movements in mice and rats
same,Duration of the sleep induced by barbital,[9],a reduction in the duration of the sleep induced by barbital
same,Activity on the delayed hypersensitivity reaction,[10],"weaker activity on the abovementioned delayed hypersensitivity reaction to red blood corpuscles of sheep, at doses of 0.1 mg/kg to 10 mg/kg, administered orally"
same,Effect on stereotypies induced by amphetamine,[11],potentiation of the stereotypies
same,"Affected foetuses, number",[12]; 5 mg/kg daily,0
same,Total foetuses (live),[12]; 5 mg/kg daily,91
same,"Affected foetuses, %",[12]; 5 mg/kg daily,0%
same,"Affected foetuses, number",[12]; 10 mg/kg daily,1
same,Total foetuses (live),[12]; 10 mg/kg daily,96
same,"Affected foetuses, %",[12]; 10 mg/kg daily,1.04%
same,"Affected foetuses, number",[12]; 50 mg/kg daily,1
same,Total foetuses (live),[12]; 50 mg/kg daily,88
same,"Affected foetuses, %",[12]; 50 mg/kg daily,1.13%
same,Immunological effect (overall),[13],immunostimulant or immunomodulating effects; also recorded: immunostimulant effects
same,Stimulant effects (overall),[14]; conclusion of the tests,stimulant effects
same,α-adrenergic stimulant effects (overall),[14]; conclusion of the tests,effects showing peripheral α-adrenergic stimulation
same,Antidepressant effects (overall),"[14]; conclusion of the tests, dihydrochloride",good antidepressant; also recorded: antidepressant effects
same,"Peripheral α-adrenergic signs (mydriasis, salivation, lacrimation, exophthalmos)","[14]; species and dose not stated, dihydrochloride",mydriasis
same,pH,[15]; 0.1 g/liter in distilled water,5.0
same,pH,[15]; 0.2 g/liter in distilled water,4.5
same,pH,[15]; 0.4 g/liter in distilled water,4.0
same,pH,[15]; 0.8 g/liter in distilled water,3.5
same,pH,[15]; 1.6 g/liter in distilled water,3.0
same,pH,[15]; 3.2 g/liter in distilled water,2.5
same,pH,[15]; 6.4 g/liter in distilled water,2.0
same,pH,[15]; 25 g/liter in distilled water,1.5
same,pH,[15]; 50 g/liter in distilled water,1.0
same,pH,[15]; ≤0.05 g/liter in distilled water,5.5
same,Overall behavior: observed effects (summary),[16],excitation with hyperreactivity in mice and rats
same,Stereotype movements (summary),[16],the presence of stereotype movements in mice and rats
same,Femoral flow,"[17]; anesthetized dog, intravenous, additional 10 mg/kg",caused an increase in the femoral flow
same,Effect on hypertension induced by norepinephrine,[17]; anesthetized dogs,distinctly increases the hypertension induced by norepinephrine
same,Effects of isoprenaline (not further specified),[17]; anesthetized dogs,does not modify the effects of isoprenaline
same,Rectal temperature,[17]; anesthetized dogs,The rectal temperature rises gradually
same,Skin temperature,[17]; anesthetized dogs,a large increase in the skin temperature
same,Blood pressure,[17]; [21],No action was observed on the blood pressure
same,Femoral flow,[17]; [21],"No action was observed on the blood pressure, the femoral flow and the vertebral flow"
same,Heart rate,[17]; [21],slight tachycardiac effect at 20 mg/kg
same,Vertebral flow,[17]; [21],"No action was observed on the blood pressure, the femoral flow and the vertebral flow"
same,Spontaneous motor activity,[18],an increase in the spontaneous motor activity of mice
same,Motor activity of mice accustomed to their enclosure,[19],resumption in the motor activity of mice accustomed to their enclosure
same,Effect on stereotypies induced by apomorphine,[20],potentiation of the stereotypies
